# pIC50: −log10 of the molar value.
# Experiments:
# [1] = molecular target: T1, cyclic AMP phosphodiesterase (Homo sapiens, UniProt Q14432); experiment: Cyclic AMP phosphodiesterase inhibitory activity, enzyme from human platelets (Pharmacological Test IV); assay type: biochemical, man; settings: 0.4 μM cyclic AMP substrate, 30° C., 20 minutes, human platelet enzyme; read-out: IC50 (50% phosphodiesterase inhibition concentration)
# T1 construct: the resulting supernatant liquid was used as a crude enzyme solution; from tissue; host or cells: human platelets (from platelet-rich plasma)
# platelets [2] = experiment: Platelets aggregation inhibitory activity (method of Born et al.), collagen-induced, human PRP (Pharmacological Test I); assay type: cell-based, man; settings: Homo sapiens, Platelet, 20 μg/ml collagen, 37° C., read-out: IC50 Collagen (50% platelets aggregation inhibition)
# Method: (§1) The platelets aggregation inhibitory activity of each test compound was measured by the method of Born et al. [J. Physiol., London, 162, 67 (1962)], using Platelets Aggregation Tracer manufactured by Nikoh Bioscience Co., Ltd.
# (§2) 9 volumes of a blood collected from person was mixed with 1 volume of a 3.8% aqueous sodium citrate solution. Part of the mixture was subjected to centrifugation at 1,100 rpm for 10 minutes to obtain a platelet rich plasma (PRP). The remainder of the mixture was also subjected to centrifugation at 3,000 rpm for 10 minutes to obtain a platelet poor plasma (PPP).
# (§3) The number of platelets in the PRP was measured using Coulter Counter manufactured by Coulter Electronics Inc. Then, the PRP was diluted with the PPP so that the number of platelets in the dilution became 300,000, whereby a PRP solution was prepared.
# (§4) 200 μl of this PRP solution and 2 ml of a solution containing a test compound at a given concentration were placed in an aggregation measurement cell and heated at 37° C. for 1 minute. Thereto was added 20 μl of adenosine diphosphate (ADP manufactured by Sigma Co.) or a collagen suspension (Collagen Reagent manufactured by Horm, Hormon-Chemie, Gmbh) to induce aggregation of platelets. The resulting mixture in the cell was measured for change of transmittance, after which a platelets aggregation curve was prepared. Incidentaly, the concentration of ADP or collagen was selected so that the final Concentration became 7.5 μM or 20 μg/ml.
# (§5) Using the platelets aggregation curve, there was calculated a maximum aggregation rate (MAR) of platelets using the followoing formula: […]
# (§6) wherein a represents a transmittance of the PRP obtained in the same manner; c represents a transmittance of the PPP obtained in the same manner; and b represents a transmittance at the maximum change, of the PRP solution containng the test compound and the aggregation inducer.
# (§7) A MAR was also calculated as above, for the control containing no test compound.
# (§8) Using the above two MARs, there were calculated platelets aggregation inhibitions (%) of each test compound at various concentrations using the following formula.
# (§9) Inhibition=[1-(MAR of PRP solution containing test compound)/(MAR of PRP
# (§10) solution containing no test compound)]×100
# (§11) Using the above obtained platelets aggregation inhibitions (%) of each test compound at various concentrations, there was calculated a concentration (IC50) of each test compound for 50% platelets aggregation inhibition.
# platelets [3] = experiment: Inhibition of collagen-induced platelets adhesion, washed platelets (Pharmacological Test III); assay type: cell-based, man; settings: Platelet; dose 3 μM; 50 μg/ml collagen; human washed platelets; read-out: Inhibition (%) of collagen-induced platelets adherence
# Method: A blood was collected from a healthy person with normal platelets function by addition of 0.1% disodium ethylenediaminetetraacetate (EDTA.4Na) and immediately subjected to separation of a platelet rich plasma (PRP). The PRP was washed twice with a Tyrode's buffer solution (50mM TRIS, 0.1% EDTA, Ca (-), Mg (-), 0.14% BSA added, pH=7.4), and suspended in the buffer solution so that the number of platelets in the resulting suspension became 300, 000/ml, to obtain a platelets suspension (EDTA-WP). 4 mg of Type I manufactured by Sigma Co., derived from a bovine skin was dissolved in 0.25 ml of acetic acid (83.5 mM); 8 ml of distilled water was added thereto; an ultrasonic wave was applied to the mixture at 4° C. for 2 minutes; 5 ml of the supernatant liquid was separated as a collagen solution. Each test compound was dissolved in dimethylformamide (DMF) so as to give a concentration of at least […] when possible, to prepare a test compound solution. The change in turbidity of platelets suspension was recorded as a change in transmitted light emitted from a glass cell containing the suspension, using a platelets aggregation tracer manufactured by Nikoh Bioscience K.K., generally used in the test of platelets aggregation function, whereby the adherence of platelets was measured. Incidentally, in recoridng the change in transmitted light, the sensitivity of the recorder was 5 times as high as that used generally. 200 μl of the EDTA-WP was placed in a glass cell exclusively used for the above platelets aggregation tester. Further, 1 μl of the test compound solution was added. The mixture was incubated at room temperature for 5 minutes. Then, the cell was set in the platelets aggregation tracer and was allowed to stand for 1 minute until the temperature became 37° C. Thereafter, about 20 μl (50 μg/ml) of the collagen solution was added, and the adherence of platelets were measured.
# The inhibitions (%) of collagen-induced platelets adhesion by each test compound at various concentrations were calculated using the following formula.
# Inhibition (%)=[1-(platelets adherence when test compound added)/
# (platelets adherence when no test compound added)]×100
# mongrel dogs = settings: dog, in vivo, 300 mg/kg
# Method: The heart rate-increasing activity and blood pressure hypotensive activity of each test compound were measured by the following method, using mongrel dogs each weighing 10-20 kg. That is, said dogs were anesthesized by intravenous injection of pentobarbital sodium, then fixed at the back, and tested under artificial respiration. The blood pressures of the dogs were measured by a blood pressure measuring transducer (P23×L manufactured by Gould Statham Instruments, Inc.) via cannula inserted into the femoral artery. The heart rates of the dogs were measured using the pulse wave of the blood pressure of each dog, via a tachometer. The signals of these testng apparatuses were recorded on a thermal pen-type recorder (Recti-Horize 8K manufactured by Nippon Denki-San-ei Sha).
# Some of the compounds obtained in the above Examples were used as test compounds. […] Then, the heart rate of each dog was measured according to the above method and a maximum change in heart rate was calculated.
# platelets [4] = experiment: Platelets aggregation inhibitory activity (method of Born et al.), ADP-induced, human PRP (Pharmacological Test I); assay type: cell-based, man; settings: Homo sapiens, Platelet, 7.5 μM ADP, 37° C., read-out: IC50 ADP (50% platelets aggregation inhibition)
# Method: as §1, §2, §3, §4, §5, §6, §7, §8, §9, §10, §11
# T1 sequence (Q14432 whole entry): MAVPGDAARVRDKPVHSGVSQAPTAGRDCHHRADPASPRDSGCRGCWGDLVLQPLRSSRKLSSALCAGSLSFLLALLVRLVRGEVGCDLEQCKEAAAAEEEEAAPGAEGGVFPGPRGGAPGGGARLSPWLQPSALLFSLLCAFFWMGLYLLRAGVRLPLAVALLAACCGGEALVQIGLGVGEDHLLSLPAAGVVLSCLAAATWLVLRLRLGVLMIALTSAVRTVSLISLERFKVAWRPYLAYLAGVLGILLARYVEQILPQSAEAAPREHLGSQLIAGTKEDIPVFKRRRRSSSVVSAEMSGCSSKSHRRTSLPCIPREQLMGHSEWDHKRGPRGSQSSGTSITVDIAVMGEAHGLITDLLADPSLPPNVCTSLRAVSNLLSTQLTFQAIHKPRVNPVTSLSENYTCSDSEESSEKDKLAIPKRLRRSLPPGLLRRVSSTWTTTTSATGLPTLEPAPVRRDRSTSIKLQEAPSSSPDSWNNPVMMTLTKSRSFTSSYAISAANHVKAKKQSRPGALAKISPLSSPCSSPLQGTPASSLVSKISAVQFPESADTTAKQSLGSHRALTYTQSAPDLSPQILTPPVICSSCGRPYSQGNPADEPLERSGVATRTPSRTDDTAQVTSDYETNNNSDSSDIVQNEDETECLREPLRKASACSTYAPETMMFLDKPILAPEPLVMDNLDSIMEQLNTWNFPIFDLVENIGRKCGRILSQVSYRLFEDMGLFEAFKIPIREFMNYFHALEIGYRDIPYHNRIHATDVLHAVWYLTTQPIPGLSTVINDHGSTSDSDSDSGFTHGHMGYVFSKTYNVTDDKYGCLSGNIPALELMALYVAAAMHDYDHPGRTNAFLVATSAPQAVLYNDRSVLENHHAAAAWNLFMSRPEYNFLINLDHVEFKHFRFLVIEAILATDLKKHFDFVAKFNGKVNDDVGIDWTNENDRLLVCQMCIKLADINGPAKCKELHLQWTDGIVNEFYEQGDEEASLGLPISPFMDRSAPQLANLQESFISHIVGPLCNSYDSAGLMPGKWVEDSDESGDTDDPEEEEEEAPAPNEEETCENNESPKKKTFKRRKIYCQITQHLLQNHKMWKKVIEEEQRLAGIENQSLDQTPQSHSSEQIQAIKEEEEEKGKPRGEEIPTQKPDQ
compound,measurement,setting,value
O=c1ccc2cc(OCCCS(=O)(=O)N(CCN3CCC(O)CC3)C3CCCCCCC3)ccc2[nH]1 [Example 85],pIC50,[1],> 7.00
same,pIC50,platelets [2],6.24
same,inhibition at 3 µM,platelets [3],50%
same,Maximum change in heart rate,mongrel dogs,13 beats/minute
same,pIC50,platelets [4],5.68
